Measured values: US20240374487A1, “ANTI-AGING AGENT, COSMETIC PRODUCT, WET TOWEL, AND HYGIENE PRODUCT” (VB JAPAN TECHNOLOGY CO., LTD., priority 2021, published 2024)

How the values were obtained:
[1] = tested on: AGE receptor (FEEL-1, FEEL-2, CD-36, AGE-R1, AGE-R2, AGE-R3 and RAGE); assay: mRNA levels of AGE receptors by qRT-PCR in normal human dermal fibroblasts; format: cell-based; details: VB alone, no AGE, 37° C. 4 hours, compared with untreated group
Protocol: (§1) Normal human dermal fibroblasts (NHDF), juvenile foreskin (C-12300, PromoCell) were cultured in a dedicated medium, Fibroblast Growth Medium (C-23010, PromoCell) at 37° C. in a 5% CO2 incubator.
(§2) First, as a co-existence group of VB and AGE, normal human dermal fibroblasts were treated with AGE (100 μg/mL), and the above VB2 (concentration after dilution: 115 μg/ml) and VB3 (concentration after dilution: 1000 μg/mL) diluted to an accurate 1/1000 amount were each added and retained at 37° C. for 4 hours. […]
(§3) Then, total RNA was extracted from the cells using Trizol reagent (Ambion), and mRNA levels of AGE receptor (FEEL-1, FEEL-2, CD-36, AGE-R1, AGE-R2, AGE-R3 and RAGE) and heat shock protein (Hsp104, gp96, Hsp90, Hsp70, Hsp60, and Hsp32) were measured by qRT-PCR (one-step quantitative reverse transcription-polymerase chain reaction) method. […]
(§4) The qRT-PCR method used for the measurement of AGE receptor, heat shock protein, aquaporin, hyaluronic acid, and Elastin will be described. In the qRT-PCR method, 500 ng of the obtained total RNA was used as a template for PCR, and one step RT-PCR capable of performing CDNA synthesis by a reverse transcription reaction (Reverse Transcriptase; RT reaction) and quantitative PCR in one test tube was performed using Luna Universal One-Step qRT-PCR Kit. […]

FEEL-1 = FEEL-1 mRNA level by qRT-PCR in AGE-treated fibroblasts; format: cell-based, human; details: co-existence with AGE 100 μg/mL, 4 hours, compared with AGE single stimulation group
Protocol: as §1, §2, §3, §4

FEEL-2 = FEEL-2 mRNA level by qRT-PCR in AGE-treated fibroblasts; format: cell-based, human; details: co-existence with AGE 100 μg/mL, 4 hours, compared with AGE single stimulation group
Protocol: as §1, §2, §3, §4

RAGE = RAGE mRNA level by qRT-PCR in AGE-treated fibroblasts; format: cell-based, human; details: co-existence with AGE 100 μg/mL, 4 hours, compared with AGE single stimulation group
Protocol: as §1, §2, §3, §4

[2] = tested on: heat shock protein (Hsp104, gp96, Hsp90, Hsp70, Hsp60, and Hsp32); assay: mRNA levels of heat shock proteins by qRT-PCR in fibroblasts; format: cell-based, human; details: 4 hours
Protocol: as §1
First, as a co-existence group of VB and AGE, normal human dermal fibroblasts were treated with AGE (100 μg/mL), and the above VB2 (concentration after dilution: 115 μg/ml) and VB3 (concentration after dilution: 1000 μg/mL) diluted to an accurate 1/1000 amount were each added and retained at 37° C. for 4 hours.
In addition, as the VB single stimulation group, normal human dermal fibroblasts were not treated with AGE, and the above VB2 and VB3 diluted to an accurate 1/1000 amount were each added and held at 37° C. for 4 hours. Furthermore, as the AGE single stimulation group, normal human dermal fibroblasts were treated with AGE and kept at 37° C. for 4 hours without addition of VB2 or VB3. In addition, as an untreated group, normal human dermal fibroblasts were not treated with AGE, and were kept at 37° C. for 4 hours without adding VB2 or VB3.
Then, total RNA was extracted from the cells using Trizol reagent (Ambion), and mRNA levels of AGE receptor (FEEL-1, FEEL-2, CD-36, AGE-R1, AGE-R2, AGE-R3 and RAGE) and heat shock protein (Hsp104, gp96, Hsp90, Hsp70, Hsp60, and Hsp32) were measured by qRT-PCR (one-step quantitative reverse transcription-polymerase chain reaction) method.
The measurement results for AGE receptor are shown in FIG. 1, and the measurement results for heat shock protein are shown in FIG. 2. In FIG. 1 and FIG. 2, for the co-existence group of AGE and VB, samples to which VB2 and VB3 were added are indicated as VB2(+)AGE and VB3(+)AGE, respectively, and these values were shown in comparison with the AGE single stimulation group. In addition, for the VB single stimulation group, samples to which VB2 and VB3 were added were indicated as VB2 alone and VB3 alone, respectively, and these values were shown in comparison with the untreated group.
(§5) The qRT-PCR method used for the measurement of AGE receptor, heat shock protein, aquaporin, hyaluronic acid, and Elastin will be described. In the qRT-PCR method, 500 ng of the obtained total RNA was used as a template for PCR, and one step RT-PCR capable of performing CDNA synthesis by a reverse transcription reaction (Reverse Transcriptase; RT reaction) and quantitative PCR in one test tube was performed using Luna Universal One-Step qRT-PCR Kit.
As a PCR device, Thermal Cycler Dice Real Time System II manufactured by Takara was used. […]
(§6) The reaction was performed under the conditions of 1 cycle of 30 seconds at 95° C., and further cycles of 5 seconds at 95° C. and 30 seconds at 60° C. for 50 cycles. A variation in mRNA expression by 4 times or more (2 cycles as PCR reaction) was determined as a significant difference.

intracellular ROS [3] = assay: Intracellular ROS against AGE (DCF-DA fluorescence); format: cell-based, human; details: AGE 100 μg/mL, 4 hours, FIG. 3
Protocol: as §1
Normal human dermal fibroblasts were treated with AGE (100 μg/mL) and maintained at 37° C. for 4 hours with the addition of VB2 and VB3, respectively. Here, VB2 and VB3 were added at concentrations of 1 μg/mL, 10 μg/mL, 100 μg/mL, and 300 μg/mL, respectively. In FIGS. 3 and 4, which are graphs showing the results, those to which VB2was added were denoted as “VB2-AGE”, and those to which VB3 was added were denoted as “VB3-AGE”.
As Control, measurement was also performed on normal human dermal fibroblasts which were not treated with AGE and were held at 37° C. for 4 hours without addition of VB2 or VB3, and as an AGE single stimulation group, measurement was also performed on normal human dermal fibroblasts which were treated with AGE (100 μg/mL) and were held at 37° C. for 4 hours without addition of VB2 or VB3 (in FIGS. 3 and 4, it is denoted as “AGE”.).
Measurement of intracellular ROS was performed using fluorescence using dichlorofluorescin diacetate (DCF-DA; Invitrogen, Carlsbad, CA, USA). […] The intracellular ROS level was measured at an excitation wavelength of 525 nm using fluorescence intensity using the micro plate reader (SYNERGY/HT, BioTek, Japan).

[4] = tested on: normal human dermal fibroblasts; assay: Cell viability under hydrogen peroxide oxidative stress (Cell counting-8 kit); format: cell-based; details: for cell viability, trend: 1-300 μg/mL
Protocol: as §1
(§7) Normal human dermal fibroblasts were cultured for 2 hours in a culture solution to which 0.2 mM hydrogen peroxide was added, then washed off with PBS, and replaced with a normal medium to continue the cultivation. VB2 and VB3 were each added at any timing before or after hydrogen peroxide was added, and co-cultured for 4 hours. Thereafter, the cells or the culture solution were recovered.
In FIG. 5 which is a graph showing the results, a sample obtained by adding VB2 or VB3 after adding hydrogen peroxide was denoted as “H2O2-VB2” and “H2O2-VB3”, respectively, and a sample obtained by adding hydrogen peroxide after adding VB2 or VB3 was denoted as “VB2-H2O2” and “VB3-H2O2”, respectively.
Here, VB2 and VB3 were added at concentrations of 1 μg/mL, 10 μg/mL, 100 μg/mL, and 300 μg/mL, respectively.
The normal human dermal fibroblasts to which neither hydrogen peroxide nor VB2 nor VB3 was added were treated in the same manner as described above, and measured as Control. In addition, a sample to which VB2 or VB3 was not added (in FIG. 5, it is denoted as “H2O2”) was also treated in the same manner as described above, and measurement was performed.
The number of surviving cells in normal human dermal fibroblasts was measured using Cell counting −8 kit (DOJINDO: , Japan).

intracellular ROS [5] = assay: Intracellular ROS production against hydrogen peroxide (DCF-DA); format: cell-based, human; details: added before and after 0.2 mM hydrogen peroxide, 1-300 μg/mL
Protocol: Measurement of intracellular ROS was performed using fluorescence using dichlorofluorescin diacetate (DCF-DA; Invitrogen, Carlsbad, CA, USA). Specifically, cells were washed with PBS, and then incubated with 10 μM DCF-DA at 37° C. for 20 minutes. The intracellular ROS level was measured at an excitation wavelength of 525 nm using fluorescence intensity using the micro plate reader (SYNERGY/HT, BioTek, Japan).
as §7
According to the procedure described in “Measurement of Cell Viability” above, normal human dermal fibroblasts were treated and cultured (co-culture), and cells or the culture solution was recovered. The concentrations of VB2 and VB3 used and the notation of the samples in FIGS. 6 and 7, which are graphs showing the results, are also similar to the above “Measurement of Cell Viability”.
The measurement of intracellular ROS and the measurement of superoxide (SOD) were performed by the same methods as the methods described in “Measurement of Intracellular Reactive Oxygen (ROS) Production and Superoxide (SOD) against AGE” above, respectively.
FIGS. 6 and 7 show the results of each sample when Control is 100%.

SOD = SOD amount against hydrogen peroxide (SOD Assay Kit); format: cell-based, human; details: added before and after 0.2 mM hydrogen peroxide, 1-300 μg/mL (H2O2 only 56% of Control)
Protocol: Superoxide (SOD) was measured using SOD Assay Kit (Cayman Chemical, Ann arbor, MI, USA). Cells that had been subjected to various treatments were incubated for 24 hours, and then a Lysis buffer was added, homogenized, and centrifuged. Then, 10 μL of each sample was mixed with 200 μL of xanthine oxidase at room temperature. After 30 minutes, the absorbance at 450 nm was measured.
as §7
According to the procedure described in “Measurement of Cell Viability” above, normal human dermal fibroblasts were treated and cultured (co-culture), and cells or the culture solution was recovered. The concentrations of VB2 and VB3 used and the notation of the samples in FIGS. 6 and 7, which are graphs showing the results, are also similar to the above “Measurement of Cell Viability”. […]

AQP-1 = AQP-1 mRNA level under oxidative stress (qRT-PCR); format: cell-based, human
Protocol: as §7
(§8) According to the procedure described in “Measurement of Cell Viability” above, normal human dermal fibroblasts were treated and cultured (co-culture), and cells or the culture solution was recovered. The notation of the sample in FIGS. 8 and 9, which are graphs showing the results, is also the same as in the “Measurement of Cell Viability” described above.
(§9) The measurement of aquaporin was performed for AQP-1 and AQP-3 by a qRT-PCR method, and the measurement result was obtained by a ΔΔCt method. […] The qRT-PCR method is s specifically described in “qRT-PCR method” described later.
as §5
(§10) As a PCR device, Thermal Cycler Dice Real Time System II manufactured by Takara was used. As one reaction system, 10 μL of Luna Universal One-Step Reaction Mix (2×), 1 μL of Luna WarmStart RT Enzyme Mix (20×), 0.8 μL of Forward primer (10 μM), 0.8 μL of Reverse primer, and Total RNA as a template for the PCR were used, and the total amount was adjusted to 20 μL in Nuclease-free Water.
as §6

AQP-3 = AQP-3 mRNA level under oxidative stress (qRT-PCR); format: cell-based, human
Protocol: as §7, §8, §9, §5, §10, §6

hyaluronic acid = assay: Hyaluronic acid secreted into culture supernatant (ELISA); format: cell-based, human
Protocol: as §7
(§11) According to the procedure described in “Measurement of Cell Viability” above, normal human dermal fibroblasts were treated and cultured (co-culture), and cells or the culture solution was recovered. The concentrations of VB2 and VB3 used and the notation of the samples in FIGS. 10 and 11, which are graphs showing the results, are also similar to the above “Measurement of Cell Viability”.
(§12) The production amounts of hyaluronic acid and Elastin were measured by an ELISA method. The results of measuring the amount of hyaluronic acid secreted from normal human dermal fibroblasts into the culture supernatant by the ELISA method are shown in FIG. 10, and the results of measuring the amount of intracellular Elastin production by the ELISA method are shown in FIG. 11.

Elastin = assay: Intracellular Elastin production (ELISA); format: cell-based, human
Protocol: as §7, §11, §12

[6] = added before or after 0.2 mM hydrogen peroxide
[7] = added in advance before oxidative stress, compared with addition after
[8] = added in advance before applying oxidative stress

Na9[SbW9O33] [VB3]
mRNA expression of AGE receptor [1]: did not affect | mRNA level of FEEL-1 (FEEL-1): significantly increased | mRNA level of FEEL-2 (FEEL-2): significantly increased | mRNA level of RAGE (RAGE): significantly increased | mRNA expression of Hsp ([2]; VB alone, no AGE, compared with untreated group): did not affect | mRNA levels of all Hsps other Hsp 90 among the examined Hsps ([2]; co-existence with AGE 100 μg/mL, compared with AGE single stimulation group): significantly increased | intracellular ROS under AGE stimulation (intracellular ROS [3]): suppress the increase in ROS | maximum cell viability ([4]; added after 0.2 mM hydrogen peroxide, 300 μg/mL, % of Control (H2O2 only 59%)): 78% | cell viability, trend ([4]; added after 0.2 mM hydrogen peroxide): increased in a concentration-dependent manner | cell viability, trend ([4]; added in advance before 0.2 mM hydrogen peroxide): significant increase in a concentration-dependent manner | ROS production (intracellular ROS [5]): suppressed in a concentration-dependent manner | SOD amount (SOD): tended to be recovered in a concentration-dependent manner | mRNA level of AQP-1 (AQP-1; [6]): increased | AQP-1 mRNA repair ability, addition before vs after oxidative stress (AQP-1; [7]): tended to have a stronger repair ability | mRNA level of AQP-3 (AQP-3; [6]): increased | AQP-3 mRNA repair ability, addition before vs after oxidative stress (AQP-3; [7]): tended to have a stronger repair ability | amount of hyaluronic acid (hyaluronic acid; 0.2 mM hydrogen peroxide oxidative stress, culture supernatant): tended to be recovered | hyaluronic acid repair ability, addition before vs after oxidative stress (hyaluronic acid; [7]): tended to have a stronger repair ability | Elastin production amount (Elastin; added after application of oxidative stress (H2O2 only 56% of Control)): could not be recovered | Elastin production amount (Elastin; [8]): significant recovery | concentration at which Elastin production amount was significantly higher than Control (Elastin; [8]): 300 µg/mL
